This note sets out measurements from PMC5839231, “Isolation and Characterization of Protein Tyrosine Phosphatase 1B (PTP1B) Inhibitory Polyphenolic Compounds From Dodonaea viscosa and Their Kinetic Analysis” (Frontiers in Chemistry, 2018).

One may read the Ki as the dissociation constant of the complex between target and ligand, obtained from inhibition or displacement. Usually IC50 stands for the point on the concentration scale where inhibition reaches its midpoint. The low end stands for greater potency in that assay, the high end for weaker potency in that assay.

Read-outs that look alike come from different tables or passages of the source.

The target of test [1] is T1, Protein tyrosine phosphatase 1B (PTP1B) (Homo sapiens, UniProt P18031).
T1 sequence (P18031 1-435): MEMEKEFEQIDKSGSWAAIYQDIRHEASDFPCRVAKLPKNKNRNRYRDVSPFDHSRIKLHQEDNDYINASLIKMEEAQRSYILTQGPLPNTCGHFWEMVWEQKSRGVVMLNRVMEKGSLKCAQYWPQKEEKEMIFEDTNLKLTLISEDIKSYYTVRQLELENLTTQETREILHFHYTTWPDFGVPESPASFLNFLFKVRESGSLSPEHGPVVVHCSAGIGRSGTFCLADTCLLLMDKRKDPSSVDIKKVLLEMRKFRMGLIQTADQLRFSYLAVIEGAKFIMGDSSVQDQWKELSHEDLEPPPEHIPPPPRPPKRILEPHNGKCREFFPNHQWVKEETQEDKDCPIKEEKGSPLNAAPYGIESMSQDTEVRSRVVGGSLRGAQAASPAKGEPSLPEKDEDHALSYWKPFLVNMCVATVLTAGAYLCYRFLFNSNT
Briefly: PTP1B inhibitory kinetics (Lineweaver-Burk, Dixon and secondary plots). Format: biochemical. The settings on record: for Type of inhibition: Lineweaver-Burk plots, substrate 0.437-1.75 mM pNPP. As for the experimental part:
(§1) Protein tyrosine phosphatase 1B inhibitory assay was performed with slight modification to the previously reported method (Song et al., [2017]). Tris–HCl buffer (25 mM, pH 7.5) which contained 1 mM (ethylenediaminetetraacetic acid) EDTA, 1 mM dithiothreitol (DTT), and 2 mM β-mercaptoethanol was used as buffer solution, whereas p-nitrophenyl phosphate (pNPP), a substrate of PTP1B was utilized for enzyme activity measurement. Enzyme assay was started by mixing 10 μL of test compounds with 130 μL of Tris-HCl buffer solution in 96-well plate, then 20 μL of enzyme (EC 3.1.3.48, 1μg/mL), and finally 40 μL of substrate (4 mM pNPP) was added at 37°C for 10 min. During the substrate hydrolysis, pNPP was de-phosphorylated, giving product pNP, which was detected by Spectra Max M3 Multi-Mode Microplate reader (Molecular devices, USA) at a wavelength of 405 nm for 30 min. […] Kinetic parameters were determined by Line weaver-Burk and Dixon plots. Sigma Plot (SPCC Inc., Chicago, IL, USA) was utilized for data setting and calculation.
In order to study detailed kinetics of PTP1B, Michaelis-Menten equation (4) is applied, who's reciprocal is taken which transform to a new equation, Line weaver-Burk equation (5). Using this equation Line weaver-Burk plots were constructed, which were applied for the analysis of inhibitory kinetics of test compounds. Different inhibitor concentrations accompanied with varying substrate concentrations were used for determination of enzymes steady-state rates, subsequently kinetic parameters related to PTP1B inhibition were also determined. The values of inhibitory constants KI and KIS, when free enzyme binds with inhibitor (KI) or enzyme-substrate-complex interact with inhibitor (KIS) were obtained from secondary plots of the slopes and vertical intercept (1/V^appmax) vs. inhibitors concentration. The representative Equations (1–3) were used to acquire KI and KIS values (Chiari et al., [2011]).
For inhibition parameters, an assay was performed having different substrate concentrations (0.437–1.75 mM), and several dilutions of tested compounds.
The effects of different concentrations of the bioactive active compounds on the hydrolysis of p-nitrophenyl phosphate by PTP1B were studied. We assayed different concentrations (3.75, 7.5, 15, 30, 60, and 120 μM) of inhibitors (1-9) with the given enzyme and substrate. As a result, we observed a gradual decrease in enzyme activity (% activity) with increasing inhibitors concentrations as shown in Figure 2A. […] Plots of residual enzyme activity vs. enzyme concentration at different concentrations (0, 6.7, 13.5, and 27 μM) of compound 4 gave a family of lines which intersected on x-axis at 0 intercept. […] In order to explore the mechanistic behavior and kinetic features of the tested compounds, detailed kinetic study was performed. For this purpose the target enzyme was assayed in different concentrations of substrate (0.437, 0.875, 1.75 mM), in the presence of several dilutions of the respective compound, been graphically presented in double reciprocal plots (Linweaver-Burk and Dixon plots). Representatively, here we have explained compound 4 in detail, the Lineweaver-Burk plots of (4) produced a family of straight lines which intersected on the left side of y-axis and above the x-axis as shown in Figure 3A. The inhibitory constants (KI and KIS) were obtained by plotting the slopes and intercepts vs. different concentrations of compound 4 (Figure 3A, insets). […] In kinetic plots the abscissa [I] is the concentration of compound, where the coordinate1/V represents reciprocal of enzyme activity.

Test [2] has as its target T1, Protein tyrosine phosphatase 1B (PTP1B). Briefly: PTP1B inhibitory assay (hydrolysis of p-nitrophenyl phosphate, 405 nm). Format: biochemical. The settings on record: for IC50: pNPP substrate, 37°C, experiments repeated three times. How it is done:
as §1

The mark [3] stands for this setting: from Dixon plots, read-out: Ki (inhibition constant).

Regarding `C=C(C)C(O)Cc1cc(-c2oc3cc(O)c(OC)c(O)c3c(=O)c2OC)ccc1OC` (centres unmarked) [Compound 5, 5,7-dihydroxy-3′-(2-hydroxy-3-methylbutenyl)-3,6,4′-trimethoxy-flavone], in test [1], the Type of inhibition result is given as “Mixed”. In addition, in test [1] (setting [3]), the Ki was found to be 10.1 µM. In addition, in test [2], it took 28.4 ± 0.9 µM to reach half-maximal inhibition (IC50).
For the molecule `COc1cc(-c2oc3cc(O)cc(O)c3c(=O)c2OC2OC(COC3OC(C)C(O)C(O)C3O)C(O)C(O)C2O)ccc1O` (centres unmarked) [Compound 9, Isorhamnetin3-O-robinobioside], the Type of inhibition entry in test [1] is “Non-competitive”. Besides, in test [1] (setting [3]), the Ki came to 26.4 µM. The molecule also registered an IC50 in test [2] of 42.9 ± 0.4 µM.
In the same order, the values of `COc1c(O)cc2oc(-c3ccc(O)c(CCC(C)CO)c3)c(OC)c(=O)c2c1O` (centres unmarked) [Compound 7, 5,7,4′-trihydroxy-3′-(3-hydroxymethylbutyl)-3,6-dimethoxyflavone] are “Mixed”, 14.3 µM and 41.8 ± 0.5 µM.
On to `COc1c(O)cc2oc(-c3ccc(O)cc3)c(OC)c(=O)c2c1O` [Compound 3, viscosine], for which the Type of inhibition result in test [1] is given as “Mixed”. Also, the Ki in test [1] (setting [3]) is 6.9 µM. For the same molecule, in test [2], the IC50 turned out to be 18.7 ± 0.6 µM.
In the same order, the values of `CC1OC(OCC2OC(Oc3c(-c4ccc(O)cc4)oc4cc(O)cc(O)c4c3=O)C(O)C(O)C2O)C(O)C(O)C1O` (centres unmarked) [Compound 8, Kaempferol 3-O-rutinoside] are “Non-competitive”, 13 µM and 20.5 ± 0.8 µM.
Take `COc1ccc(-c2oc3cc(O)c(OC)c(O)c3c(=O)c2OC)cc1CCC(C)CO` (centres unmarked) [Compound 6]: in test [1], the Type of inhibition entry was “Mixed”. In test [1] (setting [3]), the Ki worked out at 22.8 µM. Also, the IC50 in test [2] was 56 ± 0.3 µM.
Take `COc1cc2oc(-c3ccc(O)cc3)c(OC)c(=O)c2c(O)c1OC` [Compound 1, penduletin]: the Type of inhibition result in test [1] is listed as “Mixed”. Further, the Ki in test [1] (setting [3]) was 27.3 µM. The IC50 in test [2] came to 57.9 ± 0.6 µM.
For the molecule `COc1ccc(-c2oc3cc(O)c(OC)c(O)c3c(=O)c2OC)cc1CC=C(C)C` [Compound 4, 5,7-dihydroxy-3,6-dimethoxy-2-(4-methoxy-3-(3-methylbut-2-enyl)phenyl)-4H-chromen-4-one], the Type of inhibition result in test [1] is “mixed type I”. In addition, the Ki came out at 4.6 µM in test [1] (setting [3]) and 4.1 ± 0.2 µM in test [1] (secondary plot of slopes vs. inhibitor concentration, Equation 2, read-out: KI (inhibitor binding to free enzyme)). Besides, the Reversibility of inhibition entry in test [1] (residual enzyme activity vs. enzyme concentration at 0, 6.7, 13.5, 27 μM inhibitor) was “reversible”. Besides, the “KIS (inhibitor binding to enzyme-substrate complex)” value in test [1] (secondary plot of intercepts vs. inhibitor concentration, Equation 3) stood at 26.4 ± 0.4 µM. The “fold more potency than mother skeleton 1” value in test [2] (IC50 comparison with compound 1) came out at 6 fold. For the same molecule, in test [2] (IC50 comparison with compound 2), the “fold more potency than mother skeleton 2” value was 2.5 fold. Further, the IC50 in test [2] is 13.5 ± 0.3 µM.
